Measurements as given in ChEMBL document CHEMBL4219027, “Lead Optimization of Benzoxepin-Type Selective Estrogen Receptor (ER) Modulators and Downregulators with Subtype-Specific ERα and ERβ Activity” (J Med Chem, 2018).
pIC50: −log10 of the molar value. Active and inactive are the calls of the source. No cut-off for these calls is given here.

What was measured:
MCF7 [1] = test: cells; conditions: Homo sapiens, MCF7, 72 h
Description: Antiproliferative activity against ER-dependent human MCF7 cells after 72 hrs by MTT assay

Estrogen receptor [2] = target: T1, Estrogen receptor (Homo sapiens, UniProt P03372); test: Displacement of fluorescein-labeled estradiol (fluoromone) from human recombinant full-length estrogen receptor alpha after 2 hrs by fluorescence polarization assay
T1 sequence (P03372 whole entry): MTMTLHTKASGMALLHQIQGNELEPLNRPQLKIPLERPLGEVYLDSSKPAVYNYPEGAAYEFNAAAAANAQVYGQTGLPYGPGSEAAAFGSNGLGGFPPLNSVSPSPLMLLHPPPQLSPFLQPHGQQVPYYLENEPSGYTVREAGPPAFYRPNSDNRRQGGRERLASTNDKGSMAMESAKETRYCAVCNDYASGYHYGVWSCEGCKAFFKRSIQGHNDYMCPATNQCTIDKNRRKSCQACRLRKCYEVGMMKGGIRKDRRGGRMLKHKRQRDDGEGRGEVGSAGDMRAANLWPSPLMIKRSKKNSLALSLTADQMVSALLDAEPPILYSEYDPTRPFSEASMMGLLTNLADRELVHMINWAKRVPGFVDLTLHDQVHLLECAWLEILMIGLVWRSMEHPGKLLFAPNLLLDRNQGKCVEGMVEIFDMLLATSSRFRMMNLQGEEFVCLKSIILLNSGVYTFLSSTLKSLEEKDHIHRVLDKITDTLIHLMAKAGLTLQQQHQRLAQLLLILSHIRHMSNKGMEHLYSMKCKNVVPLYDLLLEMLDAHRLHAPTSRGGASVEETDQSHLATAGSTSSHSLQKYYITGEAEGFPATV

Estrogen receptor [3] = target: T2, Estrogen receptor (Homo sapiens, UniProt Q92731+P03372); test: Estrogenic activity at estrogen receptor alpha/beta in human Ishikawa cells at 10 uM after 72 hrs by alkaline phosphatase assay relative to estradiol; type: ADME, cell-based
Estrogen receptor beta [4] = target: T3, Estrogen receptor beta (Homo sapiens, UniProt Q92731)
T3 sequence (Q92731 whole entry): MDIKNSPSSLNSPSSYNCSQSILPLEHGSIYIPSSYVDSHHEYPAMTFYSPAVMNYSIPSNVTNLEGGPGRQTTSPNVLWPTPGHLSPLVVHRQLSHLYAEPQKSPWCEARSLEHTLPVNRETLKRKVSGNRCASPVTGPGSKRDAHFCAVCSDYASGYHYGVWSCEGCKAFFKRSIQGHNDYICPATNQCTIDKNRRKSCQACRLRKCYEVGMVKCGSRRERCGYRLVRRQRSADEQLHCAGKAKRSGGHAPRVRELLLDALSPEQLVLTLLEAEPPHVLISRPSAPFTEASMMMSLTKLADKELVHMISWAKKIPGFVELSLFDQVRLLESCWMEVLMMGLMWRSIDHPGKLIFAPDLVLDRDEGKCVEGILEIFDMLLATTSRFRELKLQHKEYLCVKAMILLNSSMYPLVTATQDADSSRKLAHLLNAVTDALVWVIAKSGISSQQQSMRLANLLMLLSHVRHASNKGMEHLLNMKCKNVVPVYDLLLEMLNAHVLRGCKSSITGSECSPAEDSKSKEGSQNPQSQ

Estrogen receptor [5] = target: T2, Estrogen receptor; test: Antagonist activity at estrogen receptor alpha/beta in human Ishikawa cells after 72 hrs by alkaline phosphatase assay; type: cell-based
Homo sapiens = organism: Homo sapiens; test: Selectivity index, ratio of IC50 for human recombinant full-length estrogen receptor beta to IC50 for human recombinant full-length estrogen receptor alpha
[6] = target: estrogen receptor alpha/beta (Homo sapiens, UniProt P03372+Q92731); test: Estrogenic activity at estrogen receptor alpha/beta in human Ishikawa cells at 100 uM after 72 hrs by alkaline phosphatase assay relative to estradiol; type: ADME, cell-based; conditions: read-out: Activity
Estrogen receptor [7] = target: T2, Estrogen receptor; test: Estrogenic activity at estrogen receptor alpha/beta in human Ishikawa cells at 0.01 uM after 72 hrs by alkaline phosphatase assay relative to estradiol; type: ADME, cell-based
[8] = target: T4, Estrogen receptor (Homo sapiens) (UniProt P03372); test: Downregulation of estrogen receptor alpha protein levels in human MCF7 cell lysate at 10 uM after 24 hrs by Western blot analysis
T4 sequence (whole entry): T1 sequence (P03372 whole entry)

Estrogen receptor beta [9] = target: T3, Estrogen receptor beta; test: Downregulation of estrogen receptor beta protein levels in human MCF7 cell lysate at 10 uM after 24 hrs by Western blot analysis
Estrogen receptor beta [10] = target: T3, Estrogen receptor beta; test: Antagonist activity at estrogen receptor beta in human Ishikawa cells after 72 hrs by alkaline phosphatase assay; type: cell-based
MCF-10A [11] = test: Cytotoxicity against human MCF10A cells assessed as reduction in cell viability at 1 to 10 uM after 24 to 48 hrs by CytoTox 96 non-radioactive LDH cytotoxicity assay; type: cell-based
Estrogen receptor beta [12] = target: T3, Estrogen receptor beta; test: Estrogenic activity at estrogen receptor beta in human Ishikawa cells at 1 uM after 72 hrs by alkaline phosphatase assay relative to estradiol; type: cell-based
MCF-10A [13] = test: Cytotoxicity against human MCF10A cells assessed as reduction in cell viability at 10 uM after 24 to 48 hrs by CytoTox 96 non-radioactive LDH cytotoxicity assay; type: cell-based
MCF-10A [14] = test: Cytotoxicity against human MCF10A cells assessed as reduction in cell viability at 1 to 2 uM after 24 to 48 hrs by CytoTox 96 non-radioactive LDH cytotoxicity assay; type: cell-based
MCF-10A [15] = test: Cytotoxicity against human MCF10A cells assessed as reduction in cell viability at 5 uM after 24 hrs by CytoTox 96 non-radioactive LDH cytotoxicity assay; type: cell-based
MCF7 [16] = test: cells; conditions: Homo sapiens
Description: Cytotoxicity against human MCF7 cells assessed as reduction in cell viability after 3 to 12 days by MTT assay

| Structure (SMILES) | pIC50 (MCF7 [1]) | pIC50 (Estrogen receptor [2]) | pIC50 (Estrogen receptor beta [4]) | Ratio IC50 (Homo sapiens) | further results |
| --- | --- | --- | --- | --- | --- |
| O=C(O)/C=C/c1ccc(C2=C(c3ccc(O)cc3)CCSc3cc(F)ccc32)cc1 | 7.02 | 8.39 | 8.51 | 0.8 | Activity (Estrogen receptor [3]): 1.6%; IC50 (Estrogen receptor [5]): 180 nM |
| CCC(=C(c1ccc(O)cc1)c1ccc(OCCN(C)C)cc1)c1ccccc1 | 6.96 | – | – | – | – |
| O=C(O)COc1ccc(C2=C(c3ccc(O)cc3)CCOc3cc(F)ccc32)cc1 | < 4.70 | 6.20 | 7.47 | 0.054 | – |
| Cc1ccc(N2CCN(C(=O)/C=C/c3ccc(C4=C(c5ccc(O)cc5)CCOc5cc(F)ccc54)cc3)CC2)cc1 | 5.98 | 7.32 | 6.69 | 4.3 | – |
| COc1ccc2c(c1)OCCC(c1ccc(O)cc1)=C2c1ccc(/C=C/C(=O)O)cc1 | < 4.70 | 7.64 | 6.92 | 5.3 | IC50 (Estrogen receptor [5]): > 1000 nM; Activity (Estrogen receptor [7]): 15.8% |
| CCN(CC)CCNC(=O)/C=C/c1ccc(C2=C(c3ccc(O)cc3)CCOc3cc(F)ccc32)cc1 | 5.06 | 5.99 | 6.23 | 0.58 | – |
| O=C(/C=C/c1ccc(C2=C(c3ccc(O)cc3)CCOc3cc(F)ccc32)cc1)N1CCNCC1 | 5.02 | 7.85 | 7.60 | 1.9 | – |
| O=C(O)CCCOc1ccc(C2=C(c3ccc(O)cc3)CCOc3cc(F)ccc32)cc1 | < 4.70 | 6.83 | 8.91 | 0.008 | Activity [8]: inactive; Activity (Estrogen receptor beta [9]): Active; pIC50 (Estrogen receptor beta [10]): 6.37; Activity (MCF-10A [11]): Non-Toxic; Activity (Estrogen receptor beta [12]): 3.2% |
| CCC(=C(c1ccc(O)cc1)c1ccc(/C=C/C(=O)O)cc1)c1ccccc1 | 5.89 | – | – | – | pIC50 (MCF7 [16]): 6.00 to 7.00 |
| CN1CCN(C(=O)/C=C/c2ccc(C3=C(c4ccc(O)cc4)CCOc4cc(F)ccc43)cc2)CC1 | 6.32 | 7.24 | 6.45 | 6.3 | – |
| COc1ccc2c(c1)OCCC(c1ccc(O)cc1)=C2c1ccc(OCC(=O)O)cc1 | < 4.70 | 6.37 | 5.99 | 2.4 | – |

Further lines, with some results ahead:

| pIC50 (MCF7 [1]) | pIC50 (Estrogen receptor [2]) | pIC50 (Estrogen receptor beta [4]) | Ratio IC50 (Homo sapiens) | Structure (SMILES) | further results |
| --- | --- | --- | --- | --- | --- |
| 4.89 | 6.46 | 7.37 | 0.12 | CCN(CC)C(=O)/C=C/c1ccc(C2=C(c3ccc(O)cc3)CCOc3cc(F)ccc32)cc1 | activity at 72 h, 100 µM [6]: 10%; IC50 (Estrogen receptor [5]): 9.8 nM |
| 4.85 | 7.17 | 8.62 | 0.038 | O=C(/C=C/c1ccc(C2=C(c3ccc(O)cc3)CCOc3cc(F)ccc32)cc1)N1CCCC1 | – |
| 6.59 | 7.85 | 7.14 | 5.2 | O=C(O)/C=C/c1ccc(C2=C(c3ccc(O)cc3)CCOc3cc(F)ccc32)cc1 | IC50 (Estrogen receptor [5]): 1390 nM |
| – | 6.39 | 6.40 | – | O=Cc1ccc(C2=C(c3ccc(O)cc3)CCOc3cc(F)ccc32)cc1 | – |
| 4.68 | 7.68 | 7.34 | 2.2 | O=C(O)/C=C/c1ccc(C2=C(c3ccc(O)cc3)CCOc3ccccc32)cc1 | IC50 (Estrogen receptor [5]): 670 nM |
| 5.89 | 7.93 | 9.03 | 0.087 | O=C(/C=C/c1ccc(C2=C(c3ccc(O)cc3)CCOc3cc(F)ccc32)cc1)Nc1ccccc1 | – |
| 4.92 | 4.65 | 4.84 | 0.6 | Oc1ccc(C2=C(c3ccc(/C=C/c4ccccc4)cc3)c3ccc(F)cc3OCC2)cc1 | – |
| 5.80 | 7.15 | 9.26 | 0.008 | O=C(O)/C=C/C=C/c1ccc(C2=C(c3ccc(O)cc3)CCOc3cc(F)ccc32)cc1 | Activity [8]: Active; Activity (MCF-10A [13]): Toxic; Activity (Estrogen receptor beta [9]): Active; Activity (MCF-10A [14]): Non-Toxic; Activity (MCF-10A [15]): 50% |
| 5.08 | 7.13 | 7.14 | 1 | O=C(/C=C/c1ccc(C2=C(c3ccc(O)cc3)CCOc3cc(F)ccc32)cc1)N1CCN(Cc2ccccc2)CC1 | – |
| 6.15 | – | – | – | CCNC(=O)/C=C/c1ccc(C2=C(c3ccc(O)cc3)CCOc3cc(F)ccc32)cc1 | – |
| 6.01 | 6.98 | 6.35 | 4.2 | O=C(/C=C/c1ccc(C2=C(c3ccc(O)cc3)CCOc3cc(F)ccc32)cc1)c1ccccc1 | – |
| 6.05 | 7.23 | 6.76 | 3 | CC(=O)/C=C/c1ccc(C2=C(c3ccc(O)cc3)CCOc3cc(F)ccc32)cc1 | IC50 (Estrogen receptor [5]): 450 nM |
